Experimental data: patent publication US20230265044A1, “SALT OF DEMETHYL TRAMADOL AND USE THEREOF” (priority 2020, published 2023)
Converted amounts (≈) assume the structure as drawn.

Legend:
[1] = Determination on hygroscopicity (80% RH, 24 h); assay type: physicochemical
Procedure: Test process: a weighing bottle was taken, put into a dryer with 80% RH saturated solution, balanced for 24 h, taken out, and weighed as m1; a sample was taken, spread into the weighing bottle with a thickness about 1 mm, and weighed as m2; and then the weighing bottle was put into the dryer with 80% RH saturated solution, balanced for 24 h, and weighed as m3.
Calculation formula: hygroscopicity=(m3−m2)/(m2−m1)*100%

[2] = Determination on solubility in water (HPLC, stirred 24 hr); assay type: physicochemical; settings: for solubility: in water, stirred for 24 hr; for approximate solubility: water needed to dissolve 1 g: per 1 g of sample, converted from solubility
Procedure: 1. chromatographic column: Agilent Pursuit C18, 3um, 4.6*150 mm
2. Mobile phase: 0.1% trifluoroacetic acid: acetonitrile=20: 80, flow rate: 1.0 mL/min, wavelength: 215 nm, column temperature: 35° C., injection volume: 10 μl;
3. Mobile phase preparation process:
1.0 mL of trifluoroacetic acid was added into 1000 mL of water, mixed well, and ultrasonicated;
4. Sample preparation process
About 10 mg of the sample to be tested was weighed and added into 1 mL of water, stirred for 24 hr, and centrifuged. The supernatant was taken as the sample for testing solubility. 10 mg of demethyl tramadol palmitate with the same structure as the sample to be tested was weighed and placed in a 100 mL measuring flask, 80% aqueous methanol solution was added to dissolve and dilute the demethyl tramadol palmitate to the scale, which was used as the corresponding reference solution.

Molecule | hygroscopicity [1] | solubility [2] | approximate solubility: water needed to dissolve 1 g [2]
CN(C)CC1CCCCC1(O)c1cccc(O)c1 (racemic) [Example 2, Demethyl Tramadol Palmitate Monosalt] | 6.3% | 700 µg/mL | 1428.6 mL
CN(C)C[C@H]1CCCC[C@]1(O)c1cccc(O)c1 (racemic) [racemic demethyl tramadol free base, (±)-(1RS, 2RS)-2-[(N,N dimethylamino)methylene]-1-hydroxy-cyclohexyl phenol] | – | 1400 µg/mL (≈ 5.61 mM) | 714.3 mL
CN(C)C[C@H]1CCCC[C@]1(O)c1cccc(O)c1.Cl (racemic) [racemic demethyl tramadol hydrochloride] | – | higher than 200 mg/mL | ≤ 5 mL
racemic demethyl tramadol acetate | – | higher than 50 mg/mL | ≤ 20 mL
